Measured values published in patent US10703760B2, “Morphic forms of marizomib and uses thereof” (Celgene International II Sàrl, priority 2016, dated 2020).

What was measured:
Type in all cases: physicochemical
[1] = Variable temperature XRPD
Protocol: Samples run under non-ambient conditions were mounted on a silicon wafer with heat-conducting compound. The sample was then heated to the appropriate temperature at 20° C./min and subsequently held isothermally for 1 minute before data collection was initiated.

[2] = Polymorphism screening of Sample 1 (solubility observations, maturation, cooling, XRPD); design: key to Obs. at r.t. 10 vol. / Obs. at r.t. 20 vol. / Obs. at r.t. 30 vol. / Obs. at r.t. 40 vol. / Obs. at r.t. 50 vol. / Maturation 50° C./r.t. / Cooling at 5° C.: ✓ = Soluble; X = Insoluble,; details: for Maturation 50° C./r.t.: heat-cool cycles 24 h; for Cooling at 5° C.: held at 5° C. for 48 h
Protocol: Polymorphism studies on marizomib were carried out in different solvents and conditions to understand the polymorphic behavior of the free form. Marizomib (Sample 1, 30 mg) was dissolved or suspended in the given solvent at room temperature. Solvent was added until the material dissolved or up to a maximum of 50 volumes. The suspensions were matured between 50° C. and room temperature heat-cool cycles (8 h per cycle) for 24 h. The solutions were cooled to and held at 5° C. for 48 h. If no solid was obtained then the solutions were allowed to evaporate slowly at room temperature. All the recovered solids were analyzed by XRPD.

[3] = Hydrolysis of marizomib / chemical purity by HPLC after solvent exposure; details: starting material 98.2%
Protocol: Purity analysis was performed on an Agilent HP1100 series system equipped with a diode array detector and using ChemStation software vB.04.03 using the method set forth in Table-5.
30 mg of Sample 1 was suspended in the given solvent shown in Table 6 (1 ml) at room temperature. The samples were matured between 50° C. and room temperature heat-cool cycles (8 h per cycle) for 96 h. The solids were filtered, air dried and analyzed by XRPD.

[4] = Thermogravimetric analysis (TGA); details: heated at 10° C./min under nitrogen
Protocol: TGA data were collected on a TA Instruments Q500 TGA, equipped with a 16-position auto-sampler. The instrument was temperature calibrated using certified Alumel™ and Nickel. Typically 5-10 mg of each sample was loaded onto a pre-tared aluminum DSC pan and heated at 10° C./min from ambient temperature to 350° C. A nitrogen purge at 60 ml/min was maintained over the sample.
TG analyses were performed using a TA Instruments Q5000 IR thermogravimetric analyzer. Temperature calibration was performed using nickel and Alumel™. Each sample was placed in an aluminum pan. The sample was hermetically sealed, the lid pierced, then inserted into the TG furnace. The furnace was heated under nitrogen.

C[C@@]12OC(=O)[C@]1([C@@H](O)[C@@H]1C=CCCC1)NC(=O)[C@@H]2CCCl [Sample 1, marizomib]
Morphic form on heating (variable temperature XRPD) ([1]; 25° C. to 160° C.): remained as Form I | Discoloration (white to yellow) temperature; melting and/or degradation after about five minutes hold ([1]; during variable temperature XRPD): about 160 °C | Obs. at r.t. 10 vol. ([2]; 2-Propanol): X | Obs. at r.t. 20 vol. ([2]; 2-Propanol): X | Obs. at r.t. 30 vol. ([2]; 2-Propanol): X | Obs. at r.t. 40 vol. ([2]; 2-Propanol): X | Obs. at r.t. 50 vol. ([2]; 2-Propanol): X | Maturation 50° C./r.t. ([2]; 2-Propanol): X | Morphic form obtained from polymorphism screen (XRPD) ([2]; 20 solvents, maturation, cooling, evaporation): Form I was the only form obtained | Obs. at r.t. 10 vol. ([2]; Acetone): X | Obs. at r.t. 20 vol. ([2]; Acetone): X | Obs. at r.t. 30 vol. ([2]; Acetone): X | Obs. at r.t. 40 vol. ([2]; Acetone): X | Obs. at r.t. 50 vol. ([2]; Acetone): X | Maturation 50° C./r.t. ([2]; Acetone): ✓ | Cooling at 5° C. ([2]; Acetone): ✓ | Obs. at r.t. 10 vol. ([2]; Acetonitrile): X | Obs. at r.t. 20 vol. ([2]; Acetonitrile): X | Obs. at r.t. 30 vol. ([2]; Acetonitrile): X | Obs. at r.t. 40 vol. ([2]; Acetonitrile): X | Obs. at r.t. 50 vol. ([2]; Acetonitrile): X | Maturation 50° C./r.t. ([2]; Acetonitrile): X | Obs. at r.t. 10 vol. ([2]; Anisole): X | Obs. at r.t. 20 vol. ([2]; Anisole): X | Obs. at r.t. 30 vol. ([2]; Anisole): X | Obs. at r.t. 40 vol. ([2]; Anisole): X | Obs. at r.t. 50 vol. ([2]; Anisole): X | Maturation 50° C./r.t. ([2]; Anisole): X | Obs. at r.t. 10 vol. ([2]; Chloroform): X | Obs. at r.t. 20 vol. ([2]; Chloroform): ✓ | Cooling at 5° C. ([2]; Chloroform): ✓ | Obs. at r.t. 10 vol. ([2]; Cumene): X | Obs. at r.t. 20 vol. ([2]; Cumene): X | Obs. at r.t. 30 vol. ([2]; Cumene): X | Obs. at r.t. 40 vol. ([2]; Cumene): X | Obs. at r.t. 50 vol. ([2]; Cumene): X | Maturation 50° C./r.t. ([2]; Cumene): X | Obs. at r.t. 10 vol. ([2]; DMA): X | Obs. at r.t. 20 vol. ([2]; DMA): ✓ | Cooling at 5° C. ([2]; DMA): ✓ | Obs. at r.t. 10 vol. ([2]; DMF): X | Obs. at r.t. 20 vol. ([2]; DMF): ✓ | Cooling at 5° C. ([2]; DMF): ✓ | Obs. at r.t. 10 vol. ([2]; Dichloromethane): X | Obs. at r.t. 20 vol. ([2]; Dichloromethane): X | Obs. at r.t. 30 vol. ([2]; Dichloromethane): X | Obs. at r.t. 40 vol. ([2]; Dichloromethane): X | Obs. at r.t. 50 vol. ([2]; Dichloromethane): X | Maturation 50° C./r.t. ([2]; Dichloromethane): X | Obs. at r.t. 10 vol. ([2]; Dimethyl sulfoxide): X | Obs. at r.t. 20 vol. ([2]; Dimethyl sulfoxide): X | Obs. at r.t. 30 vol. ([2]; Dimethyl sulfoxide): X | Obs. at r.t. 40 vol. ([2]; Dimethyl sulfoxide): X | Obs. at r.t. 50 vol. ([2]; Dimethyl sulfoxide): X | Maturation 50° C./r.t. ([2]; Dimethyl sulfoxide): ✓ | Cooling at 5° C. ([2]; Dimethyl sulfoxide): ✓ | Obs. at r.t. 10 vol. ([2]; Ethanol): X | Obs. at r.t. 20 vol. ([2]; Ethanol): X | Obs. at r.t. 30 vol. ([2]; Ethanol): X | Obs. at r.t. 40 vol. ([2]; Ethanol): X | Obs. at r.t. 50 vol. ([2]; Ethanol): X | Maturation 50° C./r.t. ([2]; Ethanol): X | Obs. at r.t. 10 vol. ([2]; Ethyl acetate): X | Obs. at r.t. 20 vol. ([2]; Ethyl acetate): X | Obs. at r.t. 30 vol. ([2]; Ethyl acetate): X | Obs. at r.t. 40 vol. ([2]; Ethyl acetate): X | Obs. at r.t. 50 vol. ([2]; Ethyl acetate): X | Maturation 50° C./r.t. ([2]; Ethyl acetate): ✓ | Cooling at 5° C. ([2]; Ethyl acetate): ✓ | Obs. at r.t. 10 vol. ([2]; Isopropyl acetate): X | Obs. at r.t. 20 vol. ([2]; Isopropyl acetate): X | Obs. at r.t. 30 vol. ([2]; Isopropyl acetate): X | Obs. at r.t. 40 vol. ([2]; Isopropyl acetate): X | Obs. at r.t. 50 vol. ([2]; Isopropyl acetate): X | Maturation 50° C./r.t. ([2]; Isopropyl acetate): X | Obs. at r.t. 10 vol. ([2]; MEK): X | Obs. at r.t. 20 vol. ([2]; MEK): X | Obs. at r.t. 30 vol. ([2]; MEK): X | Obs. at r.t. 40 vol. ([2]; MEK): X | Obs. at r.t. 50 vol. ([2]; MEK): X | Maturation 50° C./r.t. ([2]; MEK): ✓ | Cooling at 5° C. ([2]; MEK): ✓ | Obs. at r.t. 10 vol. ([2]; MIBK): X | Obs. at r.t. 20 vol. ([2]; MIBK): X | Obs. at r.t. 30 vol. ([2]; MIBK): X | Obs. at r.t. 40 vol. ([2]; MIBK): X | Obs. at r.t. 50 vol. ([2]; MIBK): X | Maturation 50° C./r.t. ([2]; MIBK): X | Obs. at r.t. 10 vol. ([2]; Nitromethane): X | Obs. at r.t. 20 vol. ([2]; Nitromethane): X | Obs. at r.t. 30 vol. ([2]; Nitromethane): X | Obs. at r.t. 40 vol. ([2]; Nitromethane): X | Obs. at r.t. 50 vol. ([2]; Nitromethane): X | Maturation 50° C./r.t. ([2]; Nitromethane): X | Obs. at r.t. 10 vol. ([2]; Tetrahydrofuran): X | Obs. at r.t. 20 vol. ([2]; Tetrahydrofuran): ✓ | Cooling at 5° C. ([2]; Tetrahydrofuran): ✓ | Obs. at r.t. 10 vol. ([2]; Toluene): X | Obs. at r.t. 20 vol. ([2]; Toluene): X | Obs. at r.t. 30 vol. ([2]; Toluene): X | Obs. at r.t. 40 vol. ([2]; Toluene): X | Obs. at r.t. 50 vol. ([2]; Toluene): X | Maturation 50° C./r.t. ([2]; Toluene): X | Obs. at r.t. 10 vol. ([2]; n-Heptane): X | Obs. at r.t. 20 vol. ([2]; n-Heptane): X | Obs. at r.t. 30 vol. ([2]; n-Heptane): X | Obs. at r.t. 40 vol. ([2]; n-Heptane): X | Obs. at r.t. 50 vol. ([2]; n-Heptane): X | Maturation 50° C./r.t. ([2]; n-Heptane): X | Obs. at r.t. 10 vol. ([2]; tert-Butylmethyl ether): X | Obs. at r.t. 20 vol. ([2]; tert-Butylmethyl ether): X | Obs. at r.t. 30 vol. ([2]; tert-Butylmethyl ether): X | Obs. at r.t. 40 vol. ([2]; tert-Butylmethyl ether): X | Obs. at r.t. 50 vol. ([2]; tert-Butylmethyl ether): X | Maturation 50° C./r.t. ([2]; tert-Butylmethyl ether): X | Chemical purity (HPLC) of solid isolated from polymorphism screen ([3]; isolated from EtOAc experiment): 96.8% | Chemical purity (HPLC) of solid isolated from polymorphism screen ([3]; isolated from EtOH experiment): 97.4%

C[C@@]12OC(=O)[C@]1([C@@H](O)[C@@H]1C=CCCC1)NC(=O)[C@@H]2CCCl [Sample 3, marizomib]
TGA: no weight loss observed until (weight loss can be due to sample degradation) [4]: about 175 °C
